From paper PMC5012889, “Cardiac action of the first G protein biased small molecule apelin agonist” (Biochemical Pharmacology, 2016)
Entries after “also recorded” stand apart in the source; their conditions may differ. Structures can show the parent of a compound that is named as a salt. Where two headings read alike, the source gives them in different places.

What was measured:
[1] = parameters: method as in earlier work; details: saline at room temperature; cited from earlier work
[2] = Thermodynamic solubility (Cyprotex); assay type: physicochemical; details: pH 7.4, saline or isotonic, thermodynamic from solid, pH7.4, potassium salt
Description: (§1) CMF-019 ((S)-3-[1-(1-Ethyl-propyl)-2-thiophen-2-ylmethyl-1H-benzoimidazole-5-carbonyl]-amino-5-methyl-hexanoic acid) has previously been prepared (compound number 107 from patent US20140094450, 2014) via a minor modification of the literature procedure (Fig. 2). […] Thermodynamic solubility (potassium salt) and an in vitro murine microsomal stability of CMF-019 were performed at Cyprotex (Macclesfield, UK).

[3] = Analysis of rat plasma samples by LC-MS/MS; assay type: in vivo; details: approx. 10 min after last of three cumulative i.v. doses, heparinised samples, n = 6
Description: Analysis of plasma samples was performed by Peakdale Molecular (Chapel-en-la-Frith, UK). End-point blood samples were taken from rats (n = 6) following completion of three cumulative doses of CMF-019 (as described before), approximately 10 min after the last intravenous administration. The blood was collected in heparin-coated vials and spun at low speed (2000 g, 5 min), the plasma supernatant was removed and frozen. Quantitative analysis was performed using LC-MS/MS with metaprolol as an internal standard and CMF-019 to quantify CMF-019 in the samples.

[4] = molecular target: T1, apelin receptor (Rattus norvegicus, UniProt Q9JHG3); assay: Competition radioligand binding, rat whole heart homogenate
T1 construct: from tissue; host or cells: rat whole heart homogenate
T1 sequence (Q9JHG3 1-377): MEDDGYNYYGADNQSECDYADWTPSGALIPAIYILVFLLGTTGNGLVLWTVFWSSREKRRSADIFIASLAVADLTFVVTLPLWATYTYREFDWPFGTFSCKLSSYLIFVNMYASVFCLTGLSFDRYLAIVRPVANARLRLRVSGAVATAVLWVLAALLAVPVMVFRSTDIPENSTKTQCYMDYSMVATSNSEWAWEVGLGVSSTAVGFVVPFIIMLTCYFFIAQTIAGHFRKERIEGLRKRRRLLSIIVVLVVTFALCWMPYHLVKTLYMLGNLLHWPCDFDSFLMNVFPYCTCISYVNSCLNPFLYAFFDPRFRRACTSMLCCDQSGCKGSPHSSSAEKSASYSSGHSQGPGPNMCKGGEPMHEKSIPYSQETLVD
Description: (§2) Initial binding assays were performed by Cerep (Celle L’Evescault, France) on Chinese Hamster Ovary (CHO-K1) cells expressing the human apelin receptor. Further experiments were performed on human homogenised left ventricle (HLV, 1.5 mg/ml) and rat and mouse whole heart homogenates to determine any species variability prior to in vivo experiments. […] Experiments were performed in triplicate and data analysed using GraphPad Prism 6 (GraphPad Software, Inc. La Jolla, USA). Binding affinities were calculated by the Cheng-Prusoff methodology using measured IC50 values.

[5] = molecular target: T2, apelin receptor (Mus musculus, UniProt Q9WV08); assay: Competition radioligand binding, mouse whole heart homogenate
T2 construct: from tissue; host or cells: mouse whole heart homogenate
T2 sequence (Q9WV08 1-377): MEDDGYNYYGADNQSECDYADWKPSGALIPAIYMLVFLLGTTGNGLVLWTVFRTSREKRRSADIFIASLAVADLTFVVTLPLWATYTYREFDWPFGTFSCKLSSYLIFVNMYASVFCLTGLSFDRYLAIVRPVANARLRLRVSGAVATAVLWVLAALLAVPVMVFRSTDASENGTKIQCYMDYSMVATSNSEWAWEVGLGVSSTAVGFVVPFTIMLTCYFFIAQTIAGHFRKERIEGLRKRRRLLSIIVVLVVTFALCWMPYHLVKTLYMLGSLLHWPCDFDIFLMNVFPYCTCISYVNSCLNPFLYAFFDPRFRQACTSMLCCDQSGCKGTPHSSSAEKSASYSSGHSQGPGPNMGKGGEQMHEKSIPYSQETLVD
Description: as §2

[6] = molecular target: T3, apelin receptor (Homo sapiens, UniProt P35414)
T3 sequence (P35414 1-380): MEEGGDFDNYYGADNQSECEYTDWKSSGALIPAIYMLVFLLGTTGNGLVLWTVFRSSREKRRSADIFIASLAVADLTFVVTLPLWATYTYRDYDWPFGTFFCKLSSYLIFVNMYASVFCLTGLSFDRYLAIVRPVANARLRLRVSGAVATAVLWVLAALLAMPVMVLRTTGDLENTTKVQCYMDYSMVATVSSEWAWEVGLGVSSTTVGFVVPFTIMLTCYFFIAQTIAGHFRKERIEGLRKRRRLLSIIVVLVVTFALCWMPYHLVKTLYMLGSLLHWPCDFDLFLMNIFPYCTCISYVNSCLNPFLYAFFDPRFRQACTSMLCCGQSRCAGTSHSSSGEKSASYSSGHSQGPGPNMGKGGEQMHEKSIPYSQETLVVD
Description: as §2

[7] = molecular target: T3, apelin receptor; details: compared to [Pyr1]apelin-13
Description: Statistical significance was taken as 5%.

[8] = molecular target: T4, native apelin receptor (Homo sapiens, UniProt P35414); assay: Competition radioligand binding, human left ventricle homogenate
T4 sequence (P35414 1-380): T3 sequence (P35414 1-380)
Description: as §2

[9] = molecular target: T3, apelin receptor; assay: Bias calculations between pathways (ΔΔLogR, bias factors); details: compared to [Pyr1]apelin-13
Description: β-Arrestin recruitment, β-arrestin mediated internalisation and cAMP assays were performed according to the manufacturer’s instructions (DiscoverX®, Fremont, CA) and as described previously [4].
All data are expressed as mean ± SEM values. Binding and cell-based experiments were performed in triplicate. For cell based assays, n-values are given as the number of replicates/number of experiments.

[10] = In vitro murine microsomal stability (Cyprotex); assay type: in vitro ADME; details: mouse, murine microsomes
Description: as §1

[11] = system: anaesthetised male Sprague–Dawley rats; assay: Rat heart catheterisation (left ventricle pressure-volume catheter), intravenous injection; assay type: in vivo; details: for increase in dP/dtMAX (cardiac contractility): cumulative bolus
Description: Male Sprague-Dawley rats (273 ± 6 g; […] Temperature was monitored throughout the surgical procedure using a rectal probe. Prior to the start of surgery, it was ensured that pain reflexes had ceased by use of a hind-paw pinch test. The surgery was completed as previously described. In brief, the right external jugular vein was cannulated, flushed with heparin solution (2%, 0.9% saline, pH5, Macopharma) and the right common carotid artery located. The catheter (Millar Inc., SPR-869) was calibrated using the MPVS Ultra system (ADIstruments) before being inserted into the carotid and advanced to the left ventricle. Once a stable pressure-volume loop could be observed, the catheter was left in place for ten minutes. […] The effects on pressure and volume were measured and the heart rate monitored to determine and maintain a suitable depth of anaesthesia. […] Data were acquired using the MPVS Ultra system (ADIstruments) and analysed using LabChart 8 (ADIstruments). Values for the maximal change in left ventricular systolic pressure (LVSP), stroke volume, cardiac output, contractility ([…] lusitropy ([…]) from baseline were calculated from the raw data and compared. Following completion of the measurements the animal was euthanised by exsanguination under high flow isoflurane.

[12] = 500 nmol i.v., anaesthetised rats
[13] = 5000 nmol i.v., anaesthetised rats

## CC1=CC(=O)C(C2CCCCC2)=C/C1=N\OS(=O)(=O)c1ccccc1 [ML233]
[1]
  solubility in saline: low solubility

## CCC(CC)n1c(Cc2cccs2)nc2cc(C(=O)N[C@H](CC(=O)O)CC(C)C)ccc21 [CMF-019 (potassium salt)]
[2]
  solubility: 2090 µg/mL
[3]
  mean plasma concentration: 25.4 ± 2.5 µM

## CCC(CC)n1c(Cc2cccs2)nc2cc(C(=O)N[C@H](CC(=O)O)CC(C)C)ccc21 [CMF-019, (S)-3-[1-(1-Ethyl-propyl)-2-thiophen-2-ylmethyl-1H-benzoimidazole-5-carbonyl]-amino-5-methyl-hexanoic acid]
[4]
  Ki: 3.24 nM
[5]
  Ki: 1.95 nM
[6]
  Ki: 24.5 nM
[7]; cAMP
  relative effectiveness (RE): 4.19
  ΔLogR: 0.62 ± 0.16
[7]; internalisation
  relative effectiveness (RE): 7.19 × 10^−4
  ΔLogR: −3.14 ± 0.19
[7]; β-arrestin
  relative effectiveness (RE): 0.01
  ΔLogR: −1.98 ± 0.18
[8]
  Ki: 2.63 nM
[9]; cAMP (Gαi) over internalisation
  bias factor (BF): 5828
[9]; cAMP (Gαi) over β-arrestin
  bias factor (BF): 398
[9]; cAMP over internalisation
  ΔΔLogR: 3.77 ± 0.25
[9]; cAMP over β-arrestin
  ΔΔLogR: 2.60 ± 0.24
[9]; β-arrestin over internalisation
  ΔΔLogR: 1.17 ± 0.26
[10]
  half-life: 38 min
[3]
  mean plasma concentration: ~25 µM
[11]; [12]
  increase in cardiac output: 1210 ± 170 RVU/min
  increase in stroke volume: 2.62 ± 0.31 RVU
  increase in dP/dtMAX (cardiac contractility): 606 ± 112 mmHg/s
[11]; [13]
  increase in LVSP: 6.22 ± 1.98 mmHg
  increase in dP/dtMAX (cardiac contractility): 833 ± 152 mmHg/s
[11]; any of the concentrations administered (50–5000 nmol i.v.)
  adverse effects: No adverse effects were observed
[11]; i.v., anaesthetised rats
  effect on dP/dtMIN (lusitropy): Neither [Pyr^1]apelin-13 nor CMF-019 altered the dP/dtMIN; also recorded: did not alter
  effect on heart rate: without a change in heart rate
